In PubChem BioAssay (NCI):
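Method: 48-hour compound exposure of cells in 96-well plates, five concentrations, linear interpolation of endpoints. GI50 marks 50% less growth. TGI denotes the concentration required for complete inhibition of growth.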

How the values were obtained:
Test in all cases: inhibition of tumour cell growth, NCI panel, 48 h
786-0 renal = tested on: 786-0 renal
A498 renal = tested on: A498 renal
A549 NSCLC = tested on: A549 NSCLC
ACHN renal = tested on: ACHN renal
BT-549 breast = tested on: BT-549 breast
CAKI-1 renal = tested on: CAKI-1 renal
CCRF-CEM leukemia = tested on: CCRF-CEM leukemia
COLO 205 colon = tested on: COLO 205 colon
DU-145 prostate = tested on: DU-145 prostate
EKVX NSCLC = tested on: EKVX NSCLC
HCC-2998 colon = tested on: HCC-2998 colon
HCT-116 colon = tested on: HCT-116 colon
HCT-15 colon = tested on: HCT-15 colon
HL-60(TB) leukemia = tested on: HL-60(TB) leukemia
HOP-62 NSCLC = tested on: HOP-62 NSCLC
HOP-92 NSCLC = tested on: HOP-92 NSCLC
HS 578T breast = tested on: HS 578T breast
HT29 colon = tested on: HT29 colon
IGROV1 ovarian = tested on: IGROV1 ovarian
K-562 leukemia = tested on: K-562 leukemia
KM12 colon = tested on: KM12 colon
LOX IMVI melanoma = tested on: LOX IMVI melanoma
M14 melanoma = tested on: M14 melanoma
MALME-3M melanoma = tested on: MALME-3M melanoma
MCF7 breast = tested on: MCF7 breast
MDA-MB-231 breast = tested on: MDA-MB-231 breast
MDA-MB-435 = tested on: MDA-MB-435
MOLT-4 leukemia = tested on: MOLT-4 leukemia
NCI-H226 lung = tested on: NCI-H226 lung
NCI-H23 lung = tested on: NCI-H23 lung
NCI-H460 lung = tested on: NCI-H460 lung
NCI-H522 lung = tested on: NCI-H522 lung
NCI/ADR-RES ovarian = tested on: NCI/ADR-RES ovarian
OVCAR-3 ovarian = tested on: OVCAR-3 ovarian
OVCAR-4 ovarian = tested on: OVCAR-4 ovarian
OVCAR-5 ovarian = tested on: OVCAR-5 ovarian
OVCAR-8 ovarian = tested on: OVCAR-8 ovarian
PC-3 prostate = tested on: PC-3 prostate
RPMI-8226 leukemia = tested on: RPMI-8226 leukemia
RXF 393 renal = tested on: RXF 393 renal
SF-268 CNS = tested on: SF-268 CNS
SF-295 CNS = tested on: SF-295 CNS
SF-539 CNS = tested on: SF-539 CNS
SK-MEL-2 melanoma = tested on: SK-MEL-2 melanoma
SK-MEL-28 melanoma = tested on: SK-MEL-28 melanoma
SK-MEL-5 melanoma = tested on: SK-MEL-5 melanoma
SK-OV-3 ovarian = tested on: SK-OV-3 ovarian
SN12C renal = tested on: SN12C renal
SNB-19 CNS = tested on: SNB-19 CNS
SNB-75 CNS = tested on: SNB-75 CNS
SR leukemia = tested on: SR leukemia
SW-620 colon = tested on: SW-620 colon
T-47D breast = tested on: T-47D breast
TK-10 renal = tested on: TK-10 renal
U251 CNS = tested on: U251 CNS
UACC-257 melanoma = tested on: UACC-257 melanoma
UACC-62 melanoma = tested on: UACC-62 melanoma
UO-31 renal = tested on: UO-31 renal

With `O=[N+]([O-])C1C(c2ccccc2)C12c1ccccc1-c1ccccc12` (stereo unspecified) the GI50 (786-0 renal) was 0.59 µM, the TGI (786-0 renal) was 14.2 µM and the GI50 (A498 renal) was 0.316 µM. For the same compound, the TGI (A498 renal) was 3.83 µM, the GI50 (A549 NSCLC) was 1.91 µM and the TGI (A549 NSCLC) was > 100 µM. For the same compound, the GI50 (ACHN renal) was 1.47 µM, the TGI (ACHN renal) was 19.1 µM and the GI50 (BT-549 breast) was 0.543 µM. For the same compound, the TGI (BT-549 breast) was 7.32 µM, the GI50 (CAKI-1 renal) was 1.03 µM and the TGI (CAKI-1 renal) was > 65.7 µM. For the same compound, the GI50 (CCRF-CEM leukemia) was 0.318 µM, the TGI (CCRF-CEM leukemia) was 4.22 µM and the GI50 (COLO 205 colon) was 1.85 µM. For the same compound, the TGI (COLO 205 colon) was 10.9 µM, the GI50 (DU-145 prostate) was 0.733 µM and the TGI (DU-145 prostate) was 3.66 µM. The GI50 (EKVX NSCLC) was 3.22 µM, the TGI (EKVX NSCLC) was > 100 µM and the GI50 (HCC-2998 colon) was 1.49 µM. The TGI (HCC-2998 colon) was 6.43 µM, the GI50 (HCT-116 colon) was 0.371 µM and the TGI (HCT-116 colon) was 11.6 µM. For the same compound, the GI50 (HCT-15 colon) was 0.546 µM, the TGI (HCT-15 colon) was 30.4 µM and the GI50 (HL-60(TB) leukemia) was 2.12 µM. The TGI (HL-60(TB) leukemia) was > 100 µM, the GI50 (HOP-62 NSCLC) was 0.573 µM and the TGI (HOP-62 NSCLC) was 17.6 µM. It also gave a GI50 (HOP-92 NSCLC) of 0.25 µM, a TGI (HOP-92 NSCLC) of 2.05 µM and a GI50 (HS 578T breast) of 2.28 µM. For the same compound, the TGI (HS 578T breast) was > 100 µM, the GI50 (HT29 colon) was 0.349 µM and the TGI (HT29 colon) was 15.5 µM. It also gave a GI50 (IGROV1 ovarian) of 3.41 µM, a TGI (IGROV1 ovarian) of 30.1 µM and a GI50 (K-562 leukemia) of 0.452 µM. For the same compound, the TGI (K-562 leukemia) was > 65.9 µM, the GI50 (KM12 colon) was 0.931 µM and the TGI (KM12 colon) was 16.6 µM. The GI50 (LOX IMVI melanoma) was 0.416 µM, the TGI (LOX IMVI melanoma) was 2.47 µM and the GI50 (M14 melanoma) was 0.789 µM. It also gave a TGI (M14 melanoma) of 23.7 µM, a GI50 (MALME-3M melanoma) of 15 µM and a TGI (MALME-3M melanoma) of 37.8 µM. It also gave a GI50 (MCF7 breast) of 0.351 µM, a TGI (MCF7 breast) of 30.8 µM and a GI50 (MDA-MB-231 breast) of 0.633 µM. For the same compound, the TGI (MDA-MB-231 breast) was 13.5 µM, the GI50 (MDA-MB-435) was 0.188 µM and the TGI (MDA-MB-435) was 0.454 µM. For the same compound, the GI50 (MOLT-4 leukemia) was 0.746 µM, the TGI (MOLT-4 leukemia) was > 26.3 µM and the GI50 (NCI-H226 lung) was 2.05 µM. For the same compound, the TGI (NCI-H226 lung) was 14.5 µM, the GI50 (NCI-H23 lung) was 2.06 µM and the TGI (NCI-H23 lung) was > 47.2 µM. For the same compound, the GI50 (NCI-H460 lung) was 0.589 µM, the TGI (NCI-H460 lung) was 10.7 µM and the GI50 (NCI-H522 lung) was 0.68 µM. The TGI (NCI-H522 lung) was 13 µM, the GI50 (NCI/ADR-RES ovarian) was 0.657 µM and the TGI (NCI/ADR-RES ovarian) was > 23.7 µM. The GI50 (OVCAR-3 ovarian) was 0.783 µM, the TGI (OVCAR-3 ovarian) was 3.59 µM and the GI50 (OVCAR-4 ovarian) was 3.56 µM. For the same compound, the TGI (OVCAR-4 ovarian) was > 100 µM, the GI50 (OVCAR-5 ovarian) was 4.65 µM and the TGI (OVCAR-5 ovarian) was > 51.8 µM. The GI50 (OVCAR-8 ovarian) was 0.645 µM, the TGI (OVCAR-8 ovarian) was > 24.3 µM and the GI50 (PC-3 prostate) was 0.947 µM. For the same compound, the TGI (PC-3 prostate) was > 100 µM, the GI50 (RPMI-8226 leukemia) was 0.322 µM and the TGI (RPMI-8226 leukemia) was 1.51 µM. It also gave a GI50 (RXF 393 renal) of 0.845 µM, a TGI (RXF 393 renal) of 6.24 µM and a GI50 (SF-268 CNS) of 2.3 µM. The TGI (SF-268 CNS) was 28 µM, the GI50 (SF-295 CNS) was 0.598 µM and the TGI (SF-295 CNS) was 43.9 µM. The GI50 (SF-539 CNS) was 1.31 µM, the TGI (SF-539 CNS) was 9 µM and the GI50 (SK-MEL-2 melanoma) was 4.4 µM. It also gave a TGI (SK-MEL-2 melanoma) of 31.4 µM, a GI50 (SK-MEL-28 melanoma) of 4.18 µM and a TGI (SK-MEL-28 melanoma) of 22.5 µM. It also gave a GI50 (SK-MEL-5 melanoma) of 0.515 µM, a TGI (SK-MEL-5 melanoma) of 9.48 µM and a GI50 (SK-OV-3 ovarian) of 1.84 µM. For the same compound, the TGI (SK-OV-3 ovarian) was > 41.1 µM, the GI50 (SN12C renal) was 1.67 µM and the TGI (SN12C renal) was 26 µM. For the same compound, the GI50 (SNB-19 CNS) was 12.4 µM, the TGI (SNB-19 CNS) was > 100 µM and the GI50 (SNB-75 CNS) was 0.612 µM. The TGI (SNB-75 CNS) was 14 µM, the GI50 (SR leukemia) was 0.348 µM and the TGI (SR leukemia) was 4.22 µM. For the same compound, the GI50 (SW-620 colon) was 0.424 µM, the TGI (SW-620 colon) was 8.2 µM and the GI50 (T-47D breast) was 2.73 µM. The TGI (T-47D breast) was 23.2 µM, the GI50 (TK-10 renal) was 2 µM and the TGI (TK-10 renal) was 16.6 µM. The GI50 (U251 CNS) was 1.03 µM, the TGI (U251 CNS) was 14 µM and the GI50 (UACC-257 melanoma) was 6.38 µM. It also gave a TGI (UACC-257 melanoma) of 51.2 µM, a GI50 (UACC-62 melanoma) of 0.544 µM and a TGI (UACC-62 melanoma) of 15.6 µM. It also gave a GI50 (UO-31 renal) of 2.06 µM and a TGI (UO-31 renal) of 18.8 µM.
